Experimental data: PubChem BioAssay AID248 (DTP/NCI, 2004)
Where “and” joins values, the source holds several entries; their conditions need not be identical. Equal values may be shown once. Inconclusive results and toxic doses are left out. Cut-off read from the data, not from the text of the source: active = T/C of 150% or more; inactive = T/C below 125%.

Test system: L1210 leukemia ip in BDF1 mice, survival T/C
Experiment: NCI In Vivo Anticancer Drug Screen. Data for tumor model L1210 Leukemia (intraperitoneal) in B6D2F1 (BDF1) mice
Conditions: endpoint: mean survival time, higher = longer survival
Summary of the method: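 Antitumor effect is assessed in tumor-bearing animals. Survival in the compound arm is compared with a vehicle-dosed control arm and expressed as their quotient.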

[1] = dose: 50.0 mg/kg/injection, schedule: Q01DX001 (ip), vehicle: saline
[2] = dose: 75.0 mg/kg/injection, schedule: Q01DX001 (ip), vehicle: saline
[3] = dose: 150.0 mg/kg/injection, schedule: Q01DX001 (ip), vehicle: saline
[4] = dose: 100.0 mg/kg/injection, schedule: Q01DX001 (ip), vehicle: saline
[5] = dose: 400.0 mg/kg/injection, schedule: Q01DX001 (ip), vehicle: saline

Measured: T/C

CC1(C)Oc2[nH]c(=O)n(-c3ccccc3)c(=O)c2C1c1ccc(Cl)cc1 (stereo unspecified)
inactive: dose: 12.5 mg/kg/injection, schedule: Q01DX001 (ip), vehicle: saline 94 % of control | dose: 12.5 mg/kg/injection, schedule: Q04DX003 (ip), vehicle: acetone 103 % of control | dose: 25.0 mg/kg/injection, schedule: Q01DX001 (ip), vehicle: saline 97 % of control | dose: 25.0 mg/kg/injection, schedule: Q04DX003 (ip), vehicle: acetone 86 % of control | dose: 35.0 mg/kg/injection, schedule: Q01DX009 (ip), vehicle: saline 94 % of control | [1] 92 % of control | dose: 55.0 mg/kg/injection, schedule: Q01DX009 (ip), vehicle: saline 96 % of control | dose: 80.0 mg/kg/injection, schedule: Q01DX009 (ip), vehicle: saline 106 % of control

CCCCCCCCCC(=O)Oc1nncc(=O)[nH]1
inactive: dose: 50.0 mg/kg/injection, schedule: Q01DX009 (ip), vehicle: saline 87 % of control | dose: 100.0 mg/kg/injection, schedule: Q01DX009 (ip), vehicle: saline 97 % of control | dose: 200.0 mg/kg/injection, schedule: Q01DX009 (ip), vehicle: saline 104 % of control

CCCCOC(=O)c1ccc(NC(=O)Nc2cc(C(F)(F)F)ccc2Cl)cc1
inactive: dose: 100.0 mg/kg/injection, schedule: Q01DX009 (ip), vehicle: Klucel (hydroxypropylcellulose) (HPC) 107 % of control | dose: 200.0 mg/kg/injection, schedule: Q01DX009 (ip), vehicle: Klucel (hydroxypropylcellulose) (HPC) 113 % of control | dose: 400.0 mg/kg/injection, schedule: Q01DX009 (ip), vehicle: Klucel (hydroxypropylcellulose) (HPC) 94 % of control

O=C1c2ccccc2C(=O)c2cc3nc4c5ccccc5c5ccccc5c4nc3cc21
inactive: dose: 100.0 mg/kg/injection, schedule: Q01DX009 (ip), vehicle: saline with Tween-80 93 % of control | dose: 100.0 mg/kg/injection, schedule: Q04DX002 (ip), vehicle: saline with Tween-80 103 % of control | dose: 200.0 mg/kg/injection, schedule: Q01DX009 (ip), vehicle: saline with Tween-80 90 % of control | dose: 200.0 mg/kg/injection, schedule: Q04DX002 (ip), vehicle: saline with Tween-80 97 % of control | dose: 400.0 mg/kg/injection, schedule: Q01DX009 (ip), vehicle: saline with Tween-80 97 % of control | dose: 400.0 mg/kg/injection, schedule: Q04DX002 (ip), vehicle: saline with Tween-80 100 % of control

CCCC1CCCC(=O)N1 (stereo unspecified)
inactive: [2] 98 % of control | [3] 98 % of control

COC(=O)C1=C(c2ccncc2)c2cccc3cccc1c23
inactive: dose: 100.0 mg/kg/injection, schedule: Q04DX003 (ip), vehicle: alcohol 94 % of control | dose: 200.0 mg/kg/injection, schedule: Q04DX003 (ip), vehicle: alcohol 102 % of control

CNc1ccc(N=Nc2ccc3ncccc3c2)cc1
inactive: dose: 3.8 mg/kg/injection, schedule: Q01DX009 (ip), vehicle: saline 98 % of control | dose: 6.7 mg/kg/injection, schedule: Q01DX Z (ip), vehicle: carboxymethylcellulose (CMC) 98 % of control | dose: 7.5 mg/kg/injection, schedule: Q01DX009 (ip), vehicle: saline 102 % of control | dose: 10.0 mg/kg/injection, schedule: Q01DX Z (ip), vehicle: carboxymethylcellulose (CMC) 92 % of control | dose: 15.0 mg/kg/injection, schedule: Q01DX009 (ip), vehicle: saline 98 % of control | dose: 15.0 mg/kg/injection, schedule: Q01DX Z (ip), vehicle: carboxymethylcellulose (CMC) 92 % of control | dose: 30.0 mg/kg/injection, schedule: Q01DX009 (ip), vehicle: saline 89 % of control

CCOC(=O)CNC(=O)Nc1ccccc1F
inactive: dose: 50.0 mg/kg/injection, schedule: Q01DX009 (ip), vehicle: gum acacia 93 % of control and 97 % of control | dose: 100.0 mg/kg/injection, schedule: Q01DX001 (ip), vehicle: gum acacia 101 % of control and 102 % of control | dose: 100.0 mg/kg/injection, schedule: Q04DX002 (ip), vehicle: gum acacia 96 % of control and 97 % of control | dose: 100.0 mg/kg/injection, schedule: Q04DX003 (ip), vehicle: gum acacia 94 % of control and 108 % of control | dose: 200.0 mg/kg/injection, schedule: Q01DX001 (ip), vehicle: gum acacia 100 % of control and 102 % of control | dose: 200.0 mg/kg/injection, schedule: Q04DX002 (ip), vehicle: gum acacia 93 % of control and 94 % of control | dose: 200.0 mg/kg/injection, schedule: Q04DX003 (ip), vehicle: gum acacia 94 % of control and 101 % of control | dose: 400.0 mg/kg/injection, schedule: Q01DX001 (ip), vehicle: gum acacia 95 % of control and 105 % of control | dose: 400.0 mg/kg/injection, schedule: Q01DX009 (ip), vehicle: gum acacia 90 % of control and 91 % of control | dose: 400.0 mg/kg/injection, schedule: Q04DX002 (ip), vehicle: gum acacia 96 % of control and 87 % of control | dose: 400.0 mg/kg/injection, schedule: Q04DX003 (ip), vehicle: gum acacia 95 % of control and 96 % of control

CC(C)C(=O)c1ccc(-c2ccccc2)cc1
inactive: dose: 25.0 mg/kg/injection, schedule: Q01DX009 (ip), vehicle: water 101 % of control | dose: 50.0 mg/kg/injection, schedule: Q01DX009 (ip), vehicle: water 106 % of control | dose: 100.0 mg/kg/injection, schedule: Q01DX009 (ip), vehicle: water 98 % of control | dose: 200.0 mg/kg/injection, schedule: Q01DX009 (ip), vehicle: water 95 % of control | dose: 400.0 mg/kg/injection, schedule: Q01DX009 (ip), vehicle: water 93 % of control

O=C1c2cccc3cccc(c23)C(=O)N1c1ncn[nH]1
inactive: [1] 94 % of control | [4] 107 % of control | [5] 102 % of control

N#Cc1cccc(N)c1
inactive: [4] 109 % of control | dose: 100.0 mg/kg/injection, schedule: Q04DX003 (ip), vehicle: saline 100 % of control | dose: 200.0 mg/kg/injection, schedule: Q04DX003 (ip), vehicle: saline 94 % of control | [5] 88 % of control | dose: 400.0 mg/kg/injection, schedule: Q04DX003 (ip), vehicle: saline 93 % of control

O=c1cc(/C=N/O)c2cccc3c2n1CCC3
inactive: dose: 100.0 mg/kg/injection, schedule: Q01DX001 (ip), vehicle: saline with Tween-80 100 % of control | dose: 200.0 mg/kg/injection, schedule: Q01DX001 (ip), vehicle: saline with Tween-80 91 % of control | dose: 400.0 mg/kg/injection, schedule: Q01DX001 (ip), vehicle: saline with Tween-80 94 % of control

C=CC1CC=CCC1 (stereo unspecified) (tested in a mixture with another compound)
inactive: dose: 50.0 mg/kg/injection, schedule: Q01DX001 (ip), vehicle: carboxymethylcellulose (CMC) 98 % of control | dose: 100.0 mg/kg/injection, schedule: Q01DX001 (ip), vehicle: carboxymethylcellulose (CMC) 98 % of control | dose: 200.0 mg/kg/injection, schedule: Q01DX001 (ip), vehicle: carboxymethylcellulose (CMC) 98 % of control | dose: 400.0 mg/kg/injection, schedule: Q01DX001 (ip), vehicle: carboxymethylcellulose (CMC) 108 % of control

C/C=C1\C(=O)O[C@@]23C=C[C@H]4C(C(=O)OC)=CO[C@@H](O[C@H]12)[C@H]43
inactive: dose: 5.0 mg/kg/injection, schedule: Q01DX001 (ip), vehicle: saline 103 % of control | dose: 10.0 mg/kg/injection, schedule: Q01DX001 (ip), vehicle: saline 103 % of control | dose: 20.0 mg/kg/injection, schedule: Q01DX001 (ip), vehicle: saline 106 % of control | dose: 40.0 mg/kg/injection, schedule: Q01DX001 (ip), vehicle: saline 103 % of control

N=C(N)c1ncn(C2CCCC2)c1N
inactive: [2] 106 % of control | [3] 105 % of control

CN(C)C1=CC(=O)C(N(C)C)=CC1=O
inactive: dose: 100.0 mg/kg/injection, schedule: Q01DX001 (ip), vehicle: Klucel (hydroxypropylcellulose) (HPC) 110 % of control | dose: 200.0 mg/kg/injection, schedule: Q01DX001 (ip), vehicle: Klucel (hydroxypropylcellulose) (HPC) 112 % of control | dose: 400.0 mg/kg/injection, schedule: Q01DX001 (ip), vehicle: Klucel (hydroxypropylcellulose) (HPC) 105 % of control
